Test results as given in ChEMBL document CHEMBL5107957, “Trends in targeting Bcl-2 anti-apoptotic proteins for cancer treatment” (Eur J Med Chem, 2022).
One block for each molecule: values may come before it.

Key:
MOLT-4 = assay: Cytotoxicity against human MOLT-4 cells assessed as cell growth inhibition incubated for 72 hrs; assay type: functional, cell-based; details: MOLT-4, 72 h
[1] = Cytotoxicity against human platelets assessed as cell growth inhibition incubated for 24 hrs; assay type: toxicity, cell-based, Platelet
[2] = Selectivity ratio of IC50 for human platelets to IC50 for human MOLT-4 cells; assay type: toxicity; details: human platelets and human MOLT-4 cells
[3] = target: Protein cereblon/Bcl-2-like protein 1 (Homo sapiens) (UniProt Q07817+Q96SW2); assay: PROTAC activity at CRBN/Bcl-xL in human MOLT-4 cells assessed as induction of Bcl-xL degradation at 100 nM incubated for 16 hrs by Western blot assay relative to control; assay type: cell-based
Bcl-2-like protein 1 [4] = target: T1, Bcl-2-like protein 1 (Homo sapiens, UniProt Q07817); assay: Binding affinity to Bcl-xL (unknown origin) assessed as inhibition constant by fluorescence polarization assay
[5] = target: T2, Apoptosis regulator Bcl-2 (Homo sapiens, UniProt P10415); assay: Binding affinity to Bcl-2 (unknown origin) assessed as inhibition constant using 5-FAM-QEDIIRNIARHLAQVGDSMDRSIPPG as substrate
[6] = target: T3, Induced myeloid leukemia cell differentiation protein Mcl-1 (Homo sapiens, UniProt Q07820); assay: Binding affinity to Mcl-1 (unknown origin) assessed as inhibition constant using 5-FAM-QEDIIRNIARHLAQVGDSMDRSIPPG as substrate
[7] = target: T2, Apoptosis regulator Bcl-2; assay: Binding affinity to Bcl-2 (unknown origin) assessed as inhibition constant
Bcl-2-like protein 1 [8] = target: T1, Bcl-2-like protein 1; assay: Binding affinity to Bcl-xL (unknown origin) assessed as inhibition constant
[9] = target: T2, Apoptosis regulator Bcl-2; assay: Binding affinity to human Bcl-2 assessed as inhibition constant incubated for 15 mins by competition fluorescence polarization assay
[10] = target: T3, Induced myeloid leukemia cell differentiation protein Mcl-1; assay: Binding affinity to human Mcl-1 assessed as inhibition constant incubated for 15 mins by competition fluorescence polarization assay
Bcl-2-like protein 1 [11] = target: T1, Bcl-2-like protein 1; assay: Binding affinity to human Bcl-xL assessed as inhibition constant incubated for 15 mins by competition fluorescence polarization assay
[12] = target: T4, von Hippel-Lindau disease tumor suppressor/Bcl-2-like protein 1 (Homo sapiens, UniProt P40337+Q07817); assay: PROTAC activity at VHL/Bcl-xL in human THP-1 cells assessed as induction of Bcl-xL degradation incubated for 24 hrs by Western blot assay; assay type: cell-based
[13] = target: T5, von Hippel-Lindau disease tumor suppressor/Bcl-2-like protein 1 (Homo sapiens) (UniProt Q07817+P40337); assay: PROTAC activity at VHL/Bcl-xL in human THP-1 cells assessed as induction of Bcl-xL degradation incubated for 24 hrs by Western blot assay relative to control; assay type: cell-based
[14] = Binding affinity to recombinant Bcl-2 V113G mutant (unknown origin) using peptide probe incubated for 2 hrs by fluorescence based assay; design: species or system Homo sapiens
[15] = Binding affinity to recombinant Bcl-2 D129L mutant (unknown origin) using peptide probe incubated for 2 hrs by fluorescence based assay; design: species or system Homo sapiens
[16] = target: T2, Apoptosis regulator Bcl-2; assay: Displacement of synthetic peptide tracer conjugated to fluorescein isothiocyanate from C-terminal 6xHis-tagged Bcl-2 (1 to 204 residues) (unknown origin) preincubated for 1 hr followed by tracer addition measured after 20 mins by fluorescence polarization assay
Bcl-2-like protein 1 [17] = target: T1, Bcl-2-like protein 1; assay: Displacement of synthetic peptide tracer conjugated to fluorescein isothiocyanate from C-terminal 6xHis-tagged Bcl-xL (1 to 209 residues) (unknown origin) preincubated for 1 hr followed by tracer addition measured after 20 mins by fluorescence polarization assay
[18] = Solubility of the compound in aqueous buffer at physiological pH; assay type: physicochemical
[19] = target: T4, von Hippel-Lindau disease tumor suppressor/Bcl-2-like protein 1; assay: PROTAC activity at VHL/Bcl-xL in human MOLT-4 cells assessed as induction of Bcl-xL degradation incubated for 16 hrs by immunoblot assay; assay type: cell-based
[20] = target: T5, von Hippel-Lindau disease tumor suppressor/Bcl-2-like protein 1 (Homo sapiens); assay: PROTAC activity at VHL/Bcl-xL in human MOLT-4 cells assessed as induction of Bcl-xL degradation incubated for 16 hrs by immunoblot assay relative to control; assay type: cell-based

T1 sequence (Q07817 whole entry): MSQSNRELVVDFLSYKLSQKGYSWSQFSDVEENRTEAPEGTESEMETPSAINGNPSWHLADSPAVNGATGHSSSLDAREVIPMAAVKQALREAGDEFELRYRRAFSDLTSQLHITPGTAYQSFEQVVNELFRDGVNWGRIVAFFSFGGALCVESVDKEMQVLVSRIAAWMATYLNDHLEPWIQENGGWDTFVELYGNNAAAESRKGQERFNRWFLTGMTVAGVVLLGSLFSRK
T2 sequence (P10415 whole entry): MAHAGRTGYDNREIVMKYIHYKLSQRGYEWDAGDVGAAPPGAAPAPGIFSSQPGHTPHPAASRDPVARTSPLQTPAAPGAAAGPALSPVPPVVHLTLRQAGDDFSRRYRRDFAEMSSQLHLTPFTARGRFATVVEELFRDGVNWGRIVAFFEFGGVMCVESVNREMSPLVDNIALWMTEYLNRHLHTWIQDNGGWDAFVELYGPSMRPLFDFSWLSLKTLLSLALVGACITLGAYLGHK
T4 sequence (Q07817 whole entry): as the sequence (Q07817 whole entry) above
T4 sequence (P40337 whole entry): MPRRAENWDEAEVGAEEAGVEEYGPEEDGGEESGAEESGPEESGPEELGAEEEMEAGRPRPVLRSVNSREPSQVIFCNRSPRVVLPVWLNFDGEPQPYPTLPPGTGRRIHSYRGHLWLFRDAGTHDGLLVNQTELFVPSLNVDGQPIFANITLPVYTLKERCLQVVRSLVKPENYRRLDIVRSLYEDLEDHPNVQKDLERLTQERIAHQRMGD
T3 sequence (Q07820 whole entry): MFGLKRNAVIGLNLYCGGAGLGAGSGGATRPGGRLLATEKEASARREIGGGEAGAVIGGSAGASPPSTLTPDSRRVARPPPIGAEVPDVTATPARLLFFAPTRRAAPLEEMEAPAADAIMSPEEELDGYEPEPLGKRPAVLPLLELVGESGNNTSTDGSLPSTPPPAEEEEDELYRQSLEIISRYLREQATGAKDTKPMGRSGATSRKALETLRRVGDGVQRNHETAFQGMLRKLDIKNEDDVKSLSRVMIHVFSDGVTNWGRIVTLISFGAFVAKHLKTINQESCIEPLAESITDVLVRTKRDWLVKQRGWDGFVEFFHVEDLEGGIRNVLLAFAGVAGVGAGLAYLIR
T5 sequence (P40337 whole entry, looked up): as the sequence (P40337 whole entry) above
T5 sequence (Q07817 whole entry, looked up): as the sequence (Q07817 whole entry) above
Chain of Protein cereblon/Bcl-2-like protein 1 (Homo sapiens) (Q07817 whole entry, looked up): as the sequence (Q07817 whole entry) above
Chain of Protein cereblon/Bcl-2-like protein 1 (Homo sapiens) (Q96SW2 whole entry, looked up): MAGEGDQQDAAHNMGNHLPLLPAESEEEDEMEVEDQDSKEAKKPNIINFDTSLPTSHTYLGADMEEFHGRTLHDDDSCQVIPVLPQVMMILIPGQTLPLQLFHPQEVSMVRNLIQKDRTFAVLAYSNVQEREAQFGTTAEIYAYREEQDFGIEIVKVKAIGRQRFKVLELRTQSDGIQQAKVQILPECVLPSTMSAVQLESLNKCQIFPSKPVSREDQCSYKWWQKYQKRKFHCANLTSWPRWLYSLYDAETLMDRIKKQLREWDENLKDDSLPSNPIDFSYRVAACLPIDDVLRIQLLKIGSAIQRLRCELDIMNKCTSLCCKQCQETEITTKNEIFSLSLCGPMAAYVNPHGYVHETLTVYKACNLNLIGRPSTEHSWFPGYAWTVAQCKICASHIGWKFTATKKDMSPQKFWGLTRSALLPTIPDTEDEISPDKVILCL

SMILES: O=C1CCC(N2C(=O)c3cccc(NCCOCCOCc4cn(CCCC(=O)N5CCN(CC#Cc6ccc(OCCCc7sc(N8CCc9cccc(C(=O)Nc%10nc%11ccccc%11s%10)c9C8)nc7C(=O)O)c(F)c6)CC5)nn4)c3C2=O)C(=O)N1 (stereo not drawn)
IC50 (MOLT-4): 51 nM
IC50 at 24 h [1]: 1140 nM
selectivity ratio [2]: 22
Emax [3]: 85%

SMILES: N#Cc1ccc(CN2Cc3c(cc(Br)c(OCc4ccc(-c5ccccc5)cc4)c3Br)C[C@H]2C(=O)NS(=O)(=O)c2ccc(Cl)c([N+](=O)[O-])c2)cc1
Ki [5]: 0.45 nM
Ki [6]: 0.35 nM

SMILES: CN(C)CC#Cc1ccc(OCCCc2sc(N3CCc4cccc(C(=O)Nc5nc6ccccc6s5)c4C3)nc2C(=O)O)c(F)c1 [A-1155463]
IC50 (MOLT-4): 6.2 nM
IC50 at 24 h [1]: 7.1 nM

SMILES: Cc1ncsc1-c1ccc(CNC(=O)[C@@H]2C[C@@H](O)CN2C(=O)[C@@H](NC(=O)CCOCCOCCOCCOCCOCCOCC#Cc2ccc(OCCCc3sc(N4CCc5cccc(C(=O)Nc6nc7ccccc7s6)c5C4)nc3C(=O)O)cc2)C(C)(C)C)cc1
EC50 [12]: 4.8 nM
Emax [13]: 76%

SMILES: Cc1ncsc1-c1ccc([C@H](C)NC(=O)[C@@H]2C[C@@H](O)CN2C(=O)[C@@H](NC(=O)CCCCCC(=O)N2CCN(CC[C@H](CSc3ccccc3)Nc3ccc(S(=O)(=O)NC(=O)c4ccc(N5CCN(CC6=C(c7ccc(Cl)cc7)CCC(C)(C)C6)CC5)cc4)cc3S(=O)(=O)C(F)(F)F)CC2)C(C)(C)C)cc1 [DT-2216]
EC50 [19]: 63 nM
Emax [20]: 90.8%

Results, then the molecule that gave them:

Ki (Bcl-2-like protein 1 [4]): < 1 nM
SMILES: Cc1c(S(C)(=O)=O)c(-c2cc(F)cc(N3CCN(c4ccc(NS(=O)(=O)c5ccc(N[C@H](CCN6CCC(O)CC6)CSc6ccccc6)c(S(=O)(=O)C(F)(F)F)c5)cc4)CC3)c2)c(-c2ccc(Cl)cc2)n1C(C)C

Ki [7]: < 1 nM
Ki (Bcl-2-like protein 1 [8]): < 1 nM
SMILES: Cc1c(S(C)(=O)=O)c(-c2cc(F)cc(N3CCN(c4ccc(NS(=O)(=O)c5ccc(N[C@H](CCN6CCC(C(=O)OCCCP(=O)(O)O)CC6)CSc6ccccc6)c(S(=O)(=O)C(F)(F)F)c5)cc4)CC3)c2)c(-c2ccc(Cl)cc2)n1C(C)C [PELCITOCLAX]

Ki [9]: 3.3 nM
Ki [10]: > 550 nM
Ki (Bcl-2-like protein 1 [11]): > 500 nM
SMILES: CCN(CC)C[C@@H](O)CNc1ccc(NC[C@H]2CO2)c2c1C(=O)c1ccccc1C2=O

Ki [14]: 9.6 nM
Ki [15]: 1 nM
SMILES: Cc1c(N(C(=O)c2cc(-c3cc(Cl)ccc3C(=O)N3Cc4ccccc4C[C@H]3CN3CCOCC3)n(C)c2C)c2ccc(O)cc2)cc(C#N)n1C [VOB-560]

IC50 [16]: 3.9 nM
IC50 (Bcl-2-like protein 1 [17]): 4.5 nM
solubility [18]: < 1 µg/mL
SMILES: CN(CCO)CC[C@H](CSc1ccccc1)Nc1ccc(S(=O)(=O)NC(=O)c2ccc(N3CCC([C@@H](O)c4ccccc4-c4ccc(Cl)cc4)CC3)cc2)cc1S(=O)(=O)C(F)(F)F
